Test results taken from patent US20220241311A1, “METHODS AND MATERIALS FOR TREATING GLYCOSYLATION DISORDERS” (priority 2018, published 2022).

System: PGM1-defective patient fibroblasts
Assay: Nucleotide sugar analysis (UPLC-PDA), patient fibroblasts
Type: cell-based, human
Procedure: Levels of nucleotides and sugar-nucleotides were determined. Fibroblast cell pellets (5×10^6 cells per sample) were lysed and extracted in 0.37 ml ice-cold 0.5 M perchloric acid with sonication on ice. Samples were neutralized with 86 μl ice-cold neutralization solution (2.5 M KOH in 1.5 M K2HPO4) after 5 minute sonication. To remove precipitated potassium perchlorate neutralized samples were centrifuged at 4° C. and 16,400×g for 10 minutes and filtered with 0.2 μm filters. Nucleotides and sugar-nucleotides were immediately analyzed and separated via ion-pair reverse phased chromatography using an Acquity HSS T3 column (150 mm×2.1 mm, 1.7 μm, Waters) connected to an Acquity H-class UPLC system. The column temperature was set to 40° C. and the column was equilibrated with solvent A (50 mM potassium phosphate buffer, 8 mM tetrabutylammonium hydrogensulfate, pH 6.5) at a flow rate of 0.45 ml min^−1. Autosampler temperature was maintained at 6° C. […] Nucleotides were detected by Acquity PDA detector (Waters, 260 nm) and quantified using ultrapure standards (Sigma). Data acquisition and processing was performed with the Empower3 software suite (Waters).
Nucleotide sugars were measured with serum starvation during 18 hours of culturing and without of serum starvation and applying normal media.

[1] = patient 1, 1 d + 0.75 mM Galactose
[2] = patient 1, 4 d + 0.75 mM Galactose
[3] = patient 2, 1 d + 0.75 mM Galactose
[4] = patient 2, 4 d + 0.75 mM Galactose

## O=C[C@H](O)[C@@H](O)[C@@H](O)[C@H](O)CO [D-gal, D-galactose]
Patient 1, 1 d 2 mM Galactose
  ADP: 580.50 pmol/mio cells
  ATP: 2719.61 pmol/mio cells
  CTP: 342.25 pmol/mio cells
  GDP: 293.65 pmol/mio cells
  GDP-Man: 107.17 pmol/mio cells
  GTP: 542.24 pmol/mio cells
  UDP: 129.40 pmol/mio cells
  UDP-Gal: 453.09 pmol/mio cells
  UDP-Glc: 650.22 pmol/mio cells
  UDP-GlcNAc: 102.26 pmol/mio cells
  UTP: 1449.38 pmol/mio cells
  cAMP: 74.49 pmol/mio cells
[1]
  ADP: 584.35 pmol/mio cells
  AMP: 23.07 pmol/mio cells
  ATP: 2943.38 pmol/mio cells
  CTP: 366.00 pmol/mio cells
  GDP: 246.90 pmol/mio cells
  GDP-Man: 155.03 pmol/mio cells
  GTP: 588.22 pmol/mio cells
  UDP: 134.67 pmol/mio cells
  UDP-Gal: 386.15 pmol/mio cells
  UDP-Glc: 604.90 pmol/mio cells
  UDP-GlcNAc: 121.57 pmol/mio cells
  UTP: 1510.19 pmol/mio cells
  cAMP: 71.81 pmol/mio cells
Patient 1, 4 d 2 mM Galactose
  ADP: 772.84 pmol/mio cells
  AMP: 22.72 pmol/mio cells
  ATP: 3861.23 pmol/mio cells
  CTP: 370.91 pmol/mio cells
  GDP: 387.40 pmol/mio cells
  GDP-Man: 170.10 pmol/mio cells
  GTP: 763.70 pmol/mio cells
  UDP: 215.93 pmol/mio cells
  UDP-Gal: 398.07 pmol/mio cells
  UDP-Glc: 620.64 pmol/mio cells
  UDP-GlcNAc: 12.26 pmol/mio cells
  UTP: 1569.45 pmol/mio cells
  cAMP: 71.92 pmol/mio cells
[2]
  ADP: 789.98 pmol/mio cells
  AMP: 34.87 pmol/mio cells
  ATP: 3796.06 pmol/mio cells
  CTP: 342.60 pmol/mio cells
  GDP: 422.05 pmol/mio cells
  GDP-Man: 217.57 pmol/mio cells
  GTP: 749.54 pmol/mio cells
  UDP: 208.17 pmol/mio cells
  UDP-Gal: 331.94 pmol/mio cells
  UDP-Glc: 475.08 pmol/mio cells
  UDP-GlcNAc: 38.85 pmol/mio cells
  UTP: 1526.34 pmol/mio cells
  cAMP: 73.68 pmol/mio cells
Patient 2, 1 d 2 mM Galactose
  ADP: 610.98 pmol/mio cells
  AMP: 18.34 pmol/mio cells
  ATP: 5088.22 pmol/mio cells
  CTP: 419.20 pmol/mio cells
  GDP: 301.50 pmol/mio cells
  GDP-Man: 194.09 pmol/mio cells
  GTP: 982.69 pmol/mio cells
  UDP: 166.53 pmol/mio cells
  UDP-Gal: 527.44 pmol/mio cells
  UDP-Glc: 871.97 pmol/mio cells
  UDP-GlcNAc: 5.21 pmol/mio cells
  UTP: 2093.30 pmol/mio cells
  cAMP: 81.52 pmol/mio cells
[3]
  ADP: 754.10 pmol/mio cells
  AMP: 16.43 pmol/mio cells
  ATP: 5766.25 pmol/mio cells
  CTP: 448.80 pmol/mio cells
  GDP: 356.25 pmol/mio cells
  GDP-Man: 236.64 pmol/mio cells
  GTP: 1110.15 pmol/mio cells
  UDP: 219.47 pmol/mio cells
  UDP-Gal: 478.66 pmol/mio cells
  UDP-Glc: 821.98 pmol/mio cells
  UDP-GlcNAc: 36.15 pmol/mio cells
  UTP: 2422.95 pmol/mio cells
  cAMP: 77.51 pmol/mio cells
Patient 2, 4 d 2 mM Galactose
  ADP: 849.99 pmol/mio cells
  AMP: 20.40 pmol/mio cells
  ATP: 6520.85 pmol/mio cells
  CTP: 430.21 pmol/mio cells
  GDP: 356.50 pmol/mio cells
  GDP-Man: 340.74 pmol/mio cells
  GTP: 1241.95 pmol/mio cells
  UDP: 249.58 pmol/mio cells
  UDP-Gal: 455.92 pmol/mio cells
  UDP-Glc: 665.41 pmol/mio cells
  UDP-GlcNAc: 2.63 pmol/mio cells
  UTP: 2810.26 pmol/mio cells
  cAMP: 70.40 pmol/mio cells
[4]
  ADP: 834.56 pmol/mio cells
  AMP: 21.45 pmol/mio cells
  ATP: 6841.61 pmol/mio cells
  CTP: 425.54 pmol/mio cells
  GDP: 394.32 pmol/mio cells
  GDP-Man: 203.23 pmol/mio cells
  GTP: 1263.21 pmol/mio cells
  UDP: 262.74 pmol/mio cells
  UDP-Gal: 390.10 pmol/mio cells
  UDP-Glc: 611.51 pmol/mio cells
  UDP-GlcNAc: 4.53 pmol/mio cells
  UTP: 2976.41 pmol/mio cells
  cAMP: 72.52 pmol/mio cells
Patient cell lines on D-gal (1.63 without)
  Nucleotide sugar ratio UDP-Glc/UDP-Gal, mean: 1.56
